{
  "source": "patent US12448394B2",
  "about": "“Heterocyclic pyrazole derivatives as type III receptor tyrosine kinase inhibitors” (DEVELOPMENT CENTER FOR BIOTECHNOLOGY, priority 2019, dated 2025)",
  "key": {"[1]": {"tested_on": "Molm-14 human acute myeloid leukemia cell with FLT3-ITD mutation", "assay": "Molm-14 cell proliferation assay (CellTiter 96)", "assay_type": "cell-based", "conditions": "Homo sapiens; Molm-14 cells, 72 hours treatment, CellTiter96; read-out: anti-proliferation activity Molm-14 (FLT3-ITD), IC50 ranking", "method": "(§1) Inhibitions of cell growths by compounds were measured using CellTiter™-96 assay. The cytotoxicities of compounds of the invention were evaluated in cell line panels with different signaling pathway dependencies, including MV4-11 human acute myeloid leukemia cell with FLT3-ITD mutation, Molm-14 human acute myeloid leukemia cell with FLT3-ITD mutation, THP-1 human acute monocytic leukemia cell with NRAS G12D mutation, A375 melanoma cell with BRAF V600E mutation, and HCC827 NSCLC cell with EGFR exon 19 deletion mutation.\nThe compounds disclosed herein were tested in Molm-14 cell proliferation assay to determine their cellular potencies against FLT3 signal pathway dependent cell growths. Molm-14 cells are human acute myeloid leukemia (AML) cells harboring ligand-independent FLT3-ITD activating mutation, which renders the abnormal proliferation of the AML cells FLT3 signaling pathway dependent. Inhibition of FLT3 kinase activity will result in reduced growths and/or cell deaths. […] Briefly, cells were grown in RPMI 1640 medium supplemented with 10% heat inactivated fetal bovine serum and incubated at 37° C. in 5% CO2 atmosphere. Cells were allowed to expand until reaching saturation, at which point they were sub-cultured or harvested for assay use.\n(§2) MV4-11, Molm-14, THP-1, A375, and HCC827 cells were seeded into 96-well plates at 6500, 25000, 5000, 2000 and 8000 cells/well, respectively, and incubated at 37° C., 5% CO2 overnight. Then, these seeded cells were treated with increasing concentrations of the test compounds and incubated for another 72 hours. At the end of the incubation, CellTiter96® AQueous One Solution Reagent (Promega, […]) was added and incubated for the additional 2˜4 hours. Cell viability was determined by measuring absorbance at 490 nm using EMax® microplate reader (Molecular Devices, San Jose, CA, USA)."}, "[2]": {"tested_on": "THP-1 human acute monocytic leukemia cell with NRAS G12D mutation", "assay": "THP-1 cell proliferation assay (counter screen)", "assay_type": "cell-based", "conditions": "Homo sapiens, THP-1 cells, 72 hours treatment, CellTiter96, read-out: anti-proliferation activity THP-1 NRAS N12D, IC50 ranking", "method": "as §1\nTHP-1 cells are human acute monocytic leukemia cells with NRAS G12D mutation, which renders the cell growth independent of class III RTKs signaling. THP-1 cells (catalog #TIB-202) were obtained from the ATCC. Briefly, cells were grown in RPMI 1640 medium supplemented with 10% heat inactivated fetal bovine serum and 0.05 mM 2-mercaptoethanol and incubated at 37° C. in 5% CO2 atmosphere. Cells were allowed to expand until reaching saturation, at which point they were sub-cultured or harvested for assay use.\nas §2"}, "[3]": {"tested_on": "MV4-11 human acute myeloid leukemia cell with FLT3-ITD mutation", "assay": "MV4-11 cell proliferation assay (CellTiter 96)", "assay_type": "cell-based", "conditions": "Homo sapiens, MV4-11, 72 h, MV4-11 cells, 72 hours treatment, CellTiter96; read-out: anti-proliferation activity MV4-11 (FLT3-ITD), IC50 ranking", "method": "as §1\nThe compounds disclosed herein were tested in MV4-11 cell proliferation assay to determine their cellular potencies against FLT3 signal pathway dependent cell growths. MV4-11 cells are human acute myeloid leukemia (AML) cells harboring ligand-independent FLT3-ITD activating mutation, which renders the abnormal proliferation of AML cells FLT3 signaling pathway dependent. Inhibition of FLT3 kinase activity will result in reduced growths and/or cell deaths. MV4-11 cells (catalog #CRL-9591) were obtained from the American Type Culture Collection (ATCC, Manassas, VA). Briefly, cells were grown in IMDM medium supplemented with 10% heat inactivated fetal bovine serum and incubated at 37° C. in 5% CO2 atmosphere. Cells were allowed to expand until reaching saturation, at which point they were sub-cultured or harvested for assay use.\nas §2"}, "[4]": {"tested_on": "HCC827 NSCLC cell with EGFR exon 19 deletion mutation", "assay": "HCC827 cell proliferation assay (counter screen)", "assay_type": "cell-based, human", "conditions": "Homo sapiens, HCC827 cells, 72 hours treatment, CellTiter96, read-out: anti-proliferation activity HCC827 EGFR Exon19 del, IC50 ranking", "method": "as §1\n(§3) HCC827 cells are non-small cell lung carcinoma (NSCLC) cells encoding EGFR exon 19 deletion mutation, which renders the cell growth dependent on EGFR signaling instead of class III RTKs signaling. HCC827 cells (catalog #CRL-2868) were obtained from the ATCC. Briefly, cells were cultured in RPMI1640 medium supplemented with 10% FBS and incubated at 37° C. in 5% CO2 atmosphere. Cells were allowed to expand until reaching saturation, at which point they were sub-cultured or harvested for assay use.\nas §2"}, "[5]": {"tested_on": "A375 melanoma cell with BRAF V600E mutation", "assay": "A375 cell proliferation assay (counter screen)", "assay_type": "cell-based, human", "conditions": "Homo sapiens, A-375, A375 cells, 72 hours treatment, CellTiter96, read-out: anti-proliferation activity A375 BRAF V600E, IC50 ranking", "method": "as §1\nas §3, with “A375” for “HCC827”, “melanoma” for “non-small cell lung carcinoma (NSCLC)”, “BRFA V600E” for “EGFR exon 19 deletion”, “BRAF” for “EGFR”, “#CRL-1619)” for “#CRL-2868)”, “DMEM containing” for “RPMI1640 medium supplemented with”\nas §2"}, "FLT3 kinase": {"molecular_target": "T1, FLT3 kinase (Homo sapiens, UniProt P36888)", "T1 construct": "purchased SignalChem", "T1 sequence (P36888 27-993)": "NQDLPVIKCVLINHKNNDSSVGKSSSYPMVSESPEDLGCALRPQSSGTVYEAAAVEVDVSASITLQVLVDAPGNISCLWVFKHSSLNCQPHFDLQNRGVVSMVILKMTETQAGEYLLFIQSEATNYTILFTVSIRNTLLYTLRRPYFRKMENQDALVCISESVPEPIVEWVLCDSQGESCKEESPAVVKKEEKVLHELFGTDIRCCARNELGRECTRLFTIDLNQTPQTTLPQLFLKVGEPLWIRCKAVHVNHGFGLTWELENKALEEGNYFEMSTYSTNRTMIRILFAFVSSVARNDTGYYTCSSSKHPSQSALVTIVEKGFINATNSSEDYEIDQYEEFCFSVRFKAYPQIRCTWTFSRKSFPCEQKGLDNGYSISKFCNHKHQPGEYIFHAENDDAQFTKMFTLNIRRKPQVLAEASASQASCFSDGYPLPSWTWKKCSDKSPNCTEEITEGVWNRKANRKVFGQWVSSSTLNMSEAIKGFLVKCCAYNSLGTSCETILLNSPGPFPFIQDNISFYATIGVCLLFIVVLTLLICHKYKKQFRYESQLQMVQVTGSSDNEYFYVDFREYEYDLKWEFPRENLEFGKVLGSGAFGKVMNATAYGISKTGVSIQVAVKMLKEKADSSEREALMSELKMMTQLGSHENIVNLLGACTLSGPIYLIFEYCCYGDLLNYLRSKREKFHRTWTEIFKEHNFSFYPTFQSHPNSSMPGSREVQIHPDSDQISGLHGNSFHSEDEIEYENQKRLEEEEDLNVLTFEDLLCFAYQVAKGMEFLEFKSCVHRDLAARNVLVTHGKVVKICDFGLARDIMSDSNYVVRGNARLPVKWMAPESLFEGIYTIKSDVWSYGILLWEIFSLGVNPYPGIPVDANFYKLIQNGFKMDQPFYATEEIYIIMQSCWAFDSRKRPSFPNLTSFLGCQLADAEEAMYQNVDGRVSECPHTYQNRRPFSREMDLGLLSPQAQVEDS", "assay": "FLT3 kinase assay (AlphaScreen)", "assay_type": "biochemical", "conditions": "mean; read-out: Biochemical activity (Mean IC50, nM) FLT3", "method": "(§4) Inhibition of FLT3 kinase activity by a test compound disclosed herein was estimated by AlphaScreen (PerkinElmer, Akron, Ohio, USA). Standard assay conditions were 1.5 ng of recombinant FLT3 kinase (SignalChem, Richmond, BC, Canada) with 6 ng Biotin-conjugated Poly-(Glu 4: Tyr 1) (Cisbio, Bedford, MA, USA) in the assay buffer (10 μM ATP, 10 mM MOPs, pH7.0, 0.21 mM EDTA, 0.5% glycerol, 1 mg/mL BSA, 0.01% 2-mercaptoethanol, 0.001% Brij35, 10 mM MgCl2) in a final volume of 25 μL. Reactions were incubated at 30° C. for 30 min and stopped by adding 5 μL of 50 mM EDTA. Analysis of resulting product using an AlphaScreen kit and counted with Enspire Alpha (PerkinElmer, Waltham, MA, USA). […] The IC50 values of inhibitors were determined after carrying out assays with each compound at serially diluted concentrations in duplication. The results were analyzed using linear regression software (GraphPad Prism 5; GraphPad Software Inc.)"}, "FLT3-D835Y mutant kinase": {"molecular_target": "T2, FLT3-D835Y mutant kinase (Homo sapiens, UniProt P36888, D835Y)", "T2 construct": "purchased SignalChem", "T2 sequence (P36888 27-993 D835Y)": "T1 sequence (P36888 27-993) with D809Y", "assay": "FLT3-D835Y mutant kinase assay (AlphaScreen)", "assay_type": "biochemical", "conditions": "mean; read-out: Biochemical activity (Mean IC50, nM) FLT3-D835Y", "method": "as §4, with “FLT3-D835Y mutant” for “FLT3”, “(PerkinElmer).” for “(PerkinElmer, Akron, Ohio, USA).”, “1” for “1.5”, “(SignalChem)” for “(SignalChem, Richmond, BC, Canada)”, “(Cisbio)” for “(Cisbio, Bedford, MA, USA)”, “(PerkinElmer).” for “(PerkinElmer, Waltham, MA, USA).”"}},
  "note": "Numbering of substitutions follows the chain as printed.",
  "data": [
    {"smiles": "Cn1ncc2ccc(-c3n[nH]c4c3Cc3sc(-c5ccc(CN6CCOCC6)cn5)cc3-4)cc21", "note": "[Compound 55, 4-((6-(3-(1-methyl-1H-indazol-6-yl)-1,4-dihydro-thieno[2′,3′:4,5]cyclopenta [1,2-c]pyrazol-6-yl)pyridin-3-yl)methyl) morpholine]", "values": [
      {"measurement": "IC50", "setting": "[1]", "value": "< 30", "unit": "nM"},
      {"measurement": "IC50", "setting": "[2]", "value": "> 10000", "unit": "nM"},
      {"measurement": "IC50", "setting": "[3]", "value": "< 30", "unit": "nM"},
      {"measurement": "IC50", "setting": "[4]", "value": "> 10000", "unit": "nM"},
      {"measurement": "IC50", "setting": "[5]", "value": "> 10000", "unit": "nM"}
    ]},
    {"smiles": "COc1ccc(-c2n[nH]c3c2Cc2sc(-c4ccc(N)nc4)cc2-3)cc1", "note": "[Example H, 5-(3-(4-methoxyphenyl)-1,4-dihydrothieno[2′,3′:4,5]cyclopenta[1,2-c]pyrazol-6-yl)pyridin-2-amine, reference compound]", "values": [
      {"measurement": "IC50", "setting": "FLT3 kinase", "value": 8, "unit": "nM"},
      {"measurement": "IC50", "setting": "FLT3-D835Y mutant kinase", "value": 15, "unit": "nM"}
    ]}
  ]
}
